Broadly, the EC50 is the concentration at which the effect is half-maximal.

The results in this text go back to patent US11731977B2, “SGC stimulators” (Cyclerion Therapeutics, Inc., priority 2016, dated 2023).

Assay [1] concerns rats. Put plainly: Inflammatory pain: carrageenan, paw pressure test (Example 13). The format is in vivo, rat. Conditions: Indomethacin 30 mg/kg p.o.
Assay [2] concerns rats. Nature of the assay: Inflammatory pain: kaolin, gait score (Example 13). The format is in vivo, rat. The settings on record: Indomethacin 30 mg/kg p.o. As to the method:
Kaolin. Induction: In rats, unilateral arthritis was induced by an intra-articular injection of a 10% kaolin suspension into the knee joint of the right hind paw under gas anesthesia (3.5% isoflurane/3 L/min). Gait score: The gait score will be evaluated 3 h 30 min after kaolin administration by:
2: intermittent raising of the paw

The next assay relates to male Long Evans rats. Put plainly: Novel Object Recognition (NOR) test, MK-801-induced memory disruption (Example 10). Conditions: for Recognition Index, Mean: 0 to 3 minute time bin. The class given is in vivo, rat. The text has this: Objective. To assess the efficacy of compounds of the invention in reversing memory disruption induced by MK-801 using the Novel Object Recognition (NOR) test in male Long Evans rats. The NOR is a test of recognition learning and memory retrieval, which takes advantage of the spontaneous preference of rodents to investigate a novel object compared with a familiar one (Ennaceur and Delacour, 1988). […] The NOR test has been employed extensively to assess the potential cognitive-enhancing properties of novel test compounds. […] In the present study, a memory saving model was used to test the novel compound—MK-801 (Dizocilpine), an uncompetitive antagonist of the NMD A receptor was used to cause deficit of recognition memory. Compounds of the invention were evaluated through its efficacy in reversing memory impairment.
Animals. Adult male Long-Evans rats (275-299 gram at arrival from Envigo, Indianapolis, Ind.) were used in this study. Rats were placed in the experimental rooms and assigned unique identification numbers (tail marks). Rats were housed 2 per cage in polycarbonate cages with filter tops and acclimated for at least 7 days prior to testing. Animal room was maintained in a 12/12 h light/dark cycle (lights on at 07.00 EST), 22±1° C. and relative humidity at approximately 50%. Food and water were provided ad libitum. All animals were examined, handled and weighed prior to the study to assure adequate health and to minimize the non-specific stress associated with testing. Each animal was randomly assigned across the treatment groups. The experiments were conducted during the animal's light cycle phase.
MK-801 (0.1 mg/kg; Sigma-Aldrich) was dissolved in saline and injected IP 15 min prior to NOR training.
Galantamine (1 mg/kg; Tocris) was dissolved in saline and injected IP 15 minutes prior to training.
Compound I-1 (0.01, 0.1, and 1 mg/kg) was oral administrated 60 minutes prior to training. The dose volume was 4 ml/kg
Experimental procedures. NOR test was conducted in an open-field arena (40×40 cm) placed in a sound-attenuated room under dimmed lighting. Each rat was tested separately and care was taken to remove olfactory/taste cues by cleaning the arena and test objects with 70% alcohol between trials and rats. All training and testing trials were video-taped and scored by an observer blind to treatments.
On Days 1 and 2, rats were allowed to freely explore the arena (no objects inside) for a 5-minute habituation period. On Day 3 (training and testing day), rats were administered vehicle (saline), galantamine or compound solutions followed by MK-801 or vehicle (saline). After the pretreatment time, each animal was placed into the test arena in the presence of two identical objects. Each rat was placed in the arena facing the same direction at the same position, and the time spent actively exploring the objects during a 3-minute training period (T1) was recorded. The rat was returned to its home cage following training. NOR test (T2) was conducted 1 hours after T1. Each rat was placed back into the test arena in the presence of one familiar object and one novel object for 5 minutes, and the time spent exploring both objects was recorded during 0-1, 0-3 and 0-5 min time ranges. The presentation order and position of the objects (left/right) in T2 was randomized between rats to prevent bias from order or place preference.
Statistical Analysis. Data of NOR test (T2) were expressed as Recognition Index, which is defined as the ratio of the time spent exploring the novel object over the total time spent exploring both objects (Novel/(Familiar+Novel)×100%) during the test session. Data were analyzed by using one-way ANOVA followed by Fisher's LSD post hoc test on 0-1, 0-3 and 0-5 minute time range separately, with significance set at P<0.05. […] And then statistical outliers that fell above or below two standard deviations from the mean were removed from the final analysis. […]

For assay [3], the system named is Sprague-Dawley rats, streptozotocin model. Nature of the assay: Rat model of diabetic neuropathy (STZ model), paw pressure test (Example 14). The class given is in vivo. Conditions: Compound I-1 10 mg/kg p.o., gabapentin 100 mg/kg p.o., morphine 4 mg/kg s.c., mean±s.e.m.
The target of a further assay is T1, sGC enzyme (Homo sapiens, UniProt Q02108+Q02153).
T1 construct: sGC enzyme activity values in HEK cells, determined by the GloSensor assay; host or cells: HEK293 cells stably expressing GloSensor 40F cGMP biosensor
T1 sequence (Q02153 1-619): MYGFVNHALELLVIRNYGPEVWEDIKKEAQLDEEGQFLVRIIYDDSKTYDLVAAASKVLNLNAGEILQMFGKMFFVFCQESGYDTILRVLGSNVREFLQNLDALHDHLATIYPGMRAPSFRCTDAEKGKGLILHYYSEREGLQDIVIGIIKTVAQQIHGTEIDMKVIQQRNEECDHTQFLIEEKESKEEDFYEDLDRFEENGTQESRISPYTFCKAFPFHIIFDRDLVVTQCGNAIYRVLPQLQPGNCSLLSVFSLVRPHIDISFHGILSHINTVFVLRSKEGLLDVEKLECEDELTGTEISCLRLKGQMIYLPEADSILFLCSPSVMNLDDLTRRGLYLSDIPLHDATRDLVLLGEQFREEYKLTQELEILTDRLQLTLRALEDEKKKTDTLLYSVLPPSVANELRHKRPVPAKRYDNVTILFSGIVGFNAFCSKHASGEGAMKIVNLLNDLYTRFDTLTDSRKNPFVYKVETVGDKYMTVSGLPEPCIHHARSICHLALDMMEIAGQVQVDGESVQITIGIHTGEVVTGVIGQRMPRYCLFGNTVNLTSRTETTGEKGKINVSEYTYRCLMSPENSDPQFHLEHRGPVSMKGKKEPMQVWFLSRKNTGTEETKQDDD
T1 sequence (Q02108 1-690): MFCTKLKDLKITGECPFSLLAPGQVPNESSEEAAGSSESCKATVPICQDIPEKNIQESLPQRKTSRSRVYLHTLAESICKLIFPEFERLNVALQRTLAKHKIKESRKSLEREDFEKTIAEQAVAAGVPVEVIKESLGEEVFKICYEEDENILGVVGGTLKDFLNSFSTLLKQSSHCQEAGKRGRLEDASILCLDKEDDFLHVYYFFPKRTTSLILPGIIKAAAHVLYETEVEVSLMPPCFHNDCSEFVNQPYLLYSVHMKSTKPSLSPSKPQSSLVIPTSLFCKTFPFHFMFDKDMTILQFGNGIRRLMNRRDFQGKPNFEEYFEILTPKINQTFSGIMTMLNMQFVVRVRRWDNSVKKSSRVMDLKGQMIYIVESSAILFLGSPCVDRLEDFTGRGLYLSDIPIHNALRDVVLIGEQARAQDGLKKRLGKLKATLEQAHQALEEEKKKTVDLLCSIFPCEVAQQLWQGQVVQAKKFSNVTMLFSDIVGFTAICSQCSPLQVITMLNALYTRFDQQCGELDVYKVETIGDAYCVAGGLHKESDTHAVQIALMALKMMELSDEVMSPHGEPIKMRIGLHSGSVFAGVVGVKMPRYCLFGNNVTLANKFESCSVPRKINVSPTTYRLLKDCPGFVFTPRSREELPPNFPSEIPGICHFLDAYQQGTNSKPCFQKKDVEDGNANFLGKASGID
Put plainly: cGMP GloSensor cell-based assay, 384-well format (Example 2a). The settings on record: HEK293 GloSensor 40F cGMP cells; 10 μM DETA-NONOate; 50% of high control (30 μM Compound Y); read-out: Abs EC50. The essentials: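 HEK293 cells expressing GloSensor 40F cGMP biosensor, pre-equilibrated with GloSensor substrate 90 min at 25 °C, then given compound (final 0.029–30000 nM) plus 10 μM DETA-NONOate; luminescence read after 55 min at room temperature. Normalized to 1% DMSO (low) and 30 μM Compound Y (high); Abs EC50 from 4-parameter fit, n=2, geometric mean.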

The test system of assay [4] is cGMP in rat primary neurons. Nature of the assay: cGMP neuronal cell-based assay (Example 3). Conditions: Primary neuron; rat primary hippocampal neurons; 30 μM DETA-NO; cGMP by LC-MS/MS; 50% of high control (10 μM Compound Y); read-out: Abs EC50. Here is the method:
Rat primary neurons were isolated from fetuses of 18-day pregnant Sprague-Dawley females. The fetuses were collected in Hanks' balanced salt solution (HBSS) and brains were rapidly removed. The cerebral hippocampi were isolated and mechanically fragmented. Further tissue digestion was performed with 0.25% (wt/vol) trypsin solution in HBSS without Ca2+ and Mg2+ for 15 min at 37° C. After trypsination, cells were washed and resuspended in neurobasal medium supplemented with 0.5 mM L-glutamine, 12.5 uM glutamic acid, 2% B-27 and 100 U/mL penicillin, and 100 μg/mL streptomycin. Cells were plated at a density of 4×10^4 cells/well in a poly-D-lysine coated 384-well flat clear-bottom plate (Corning Cat No 354662). Cells were incubated 6-7 days at 37° C. in a humidified chamber with 5% CO2. Media was removed and cells were washed 1× with HBSS containing Ca2+ and Mg2+, and replaced with 40 uL HBSS containing 0.5 mM IBMX, and incubated for 15 minutes at 37° C. 10 uL of a 5× stock of test compounds with diethylenetriamine NONOate (DETA-NO) was added. Final concentration of DETA-NO was 30 μM. Cells were incubated for 20 min at 37° C. Medium was removed, 50 uL of ice-cold 10% acetic acid was added, and incubated for 60 minutes at 4° C. Following centrifugation at 4° C. for 5 minutes at 1000×g to pellet cell debris, the supernatant was aspirated to a clean plate and the samples were analyzed for cGMP content. cGMP concentrations were determined from each sample using LC-MS/MS.
Data were normalized to a high control using the following equation: 100*(Sample−Low Control)/(High Control−Low Control), where the low control is the average of 15 samples treated with 1% DMSO, and the high control is the average of 15 samples treated with 10 μM a known sGC stimulator Compound Y. Data were fit using a 4-parameter fit (log(agonist) vs. response—variable slope) using GraphPad Prism Software v.5. n=2 for all compounds. The Absolute EC50 was interpolated from the curve fit and is defined as the concentration at which a given compound elicits 50% of the high control response. Compounds failing to elicit a minimum response of 50% are reported as >30 μM. For compounds run in duplicate or n higher than 2, the result herein given is the geometric mean of the several results obtained.

Where only a bound is given, the exact number is not on record here.

Turning to `COc1ccc2c(c1)c(CC(=O)O)c(C)n2C(=O)c1ccc(Cl)cc1` [Indomethacin, reference compound], the “% of activity vs. vehicle” value with rats [1] came to 100%; with rats [2], 58%.

With `COc1ccc2c3c1O[C@H]1C[C@@H](O)C=C[C@@]31CCN(C)C2` [Galantamine, reference compound], the “Recognition Index, Mean” value with male Long Evans rats (Galantamine (1 mg/kg IP) + MK-801) was found to be 66.2%.

In the case of `C[C@]12N[C@H](Cc3ccccc31)c1ccccc12` [MK-801, MK-801 (Dizocilpine), reference compound], the “Recognition Index, Mean” value in the assay with male Long Evans rats (Vehicle + MK-801 (0.1 mg/kg IP)) is 54.1%. Besides, the “effect on recognition memory (Recognition Index approaching chance level, 50%)” value with male Long Evans rats (MK-801 0.1 mg/kg IP, 0-1, 0-3 and 0-5 min) was “caused a strong memory deficit”.

In the case of `NCC1(CC(=O)O)CCCCC1` [Gabapentin], the “nociceptive threshold (paw pressure test)” value in assay [3] (D18, 60 min post administration) was determined as 272 ± 6.6 g; in assay [3] (D18, 120 min post administration), 302 ± 17.7 g; in assay [3] (D21, 120 min after dosing), 274 ± 19.2 g.

`FC(F)(F)c1n[nH]c(-c2cn3ccnc3c(CCC(F)(F)C(F)(F)F)n2)n1` [Compound I-13, 8-(3,3,4,4,4-Pentafluorobutyl)-6-(3-(trifluoromethyl)-1H-1,2,4-triazol-5-yl)imidazo[1,2-a]pyrazine]: the EC50 (on sGC enzyme; in assay [4]) was over 1000 nM each time.
